Earlier results as cited in patent EP0072762B1, “Fluorinated diaminoalkene derivatives” (priority 1981, dated 1983).

Tested on: tumor
Conditions: administered intravenously once or twice a week, cited from earlier work

CC(C=NNC(=N)N)=NNC(=N)N [MGBG, methylglyoxal bis(guanylhydrazone)]
complete disappearance of the diseases (65 treated patients): two of the 65 treated patients | regression of the tumor (patients in advanced stages of various carcinomas, lymphoma, leukemia etc.): measurable regression of the tumor in many of the patients treated
